According to patent US20210363173A1, “NEUROSTERIOD DERIVATIVES AND USES THEREOF” (ACERUS BIOPHARMA INC., priority 2018, published 2021):
Values after ≈ are worked out from the molar mass of the structure shown.

Experiments:
[1] = Solubility of esters in oils (solvent added in increments until a room temperature solubility is obtained); format: physicochemical; conditions: for Solubility Limit / solubility: castor oil, room temperature; for solubility: oil or lipid, thermodynamic from solid, read-out: Solubility Limit
Procedure: About 150 mg samples of each drug substance in Table are placed in about 300 mg of a test solvent in a test tube. The samples are swirled and gently heated with a warm water bath. Additional solvent is added in about 100 mg increments until solubility is reached. The samples are cooled overnight and if precipitation is observed, then more solvent is again added in portions until a room temperature solubility is obtained. […] Ganaxolone enanthate is a liquid and appeared miscible in the oils tested.

migraine = conditions: phase 2 clinical trial for migraine; cited from earlier work
[2] = post-oral administration; cited from earlier work

Compound | Solubility Limit [1] [% w/w] | solubility [1] [µg/mL] | Miscibility in the oils tested ([1]; oils tested, substance is a liquid) | benefit on time to pain relief (migraine) | drug recovered in feces [2] [%]
CC(=O)[C@H]1CC[C@H]2[C@@H]3CC[C@H]4C[C@H](O)CC[C@]4(C)[C@H]3CC[C@]12C [Allopregnanolone, 5α-pregnan-3α-ol-20-one] | < 1 | < 10000 | – | – | –
CCCCCCC(=O)OC1(C)CCC2(C)C(CCC3C2CCC2(C)C(C(C)=O)CCC32)C1 (stereo not shown) [Ganaxalone Enanthate] | – | – | miscible | – | –
CC(=O)[C@H]1CC[C@H]2[C@@H]3CC[C@H]4C[C@](C)(O)CC[C@]4(C)[C@H]3CC[C@]12C [Ganaxalone, 3a-hydroxy-3-methyl-5a-pregnan-20-one] | ~1 | ~10000 (≈ 30.1 mM) | – | failed to show benefit | ~80
